In patent US20140371070A1, “PLANT GROWTH REGULATING COMPOUNDS” (Syngenta Participations AG, priority 2011, published 2014):

O=C(CCC(=O)OCCCC(F)(F)F)Nc1ccc(Br)cn1
melting point: 118 to 119 °C

CC1(CCOC(=O)CCC(=O)Nc2ccc(Br)cn2)OCCO1 [Compound A43, 2-(2-methyl-1,3-dioxolan-2-yl)ethyl 4-[(5-bromo-2-pyridyl)amino]-4-oxo-butanoate]
melting point: 97 to 98 °C
